Source: patent US11008292B2, “FGFR4 inhibitor and preparation method and use thereof” (GUANGDONG ZHONGSHENG PHARMACEUTICAL CO., LTD, priority 2016, dated 2021)

How the values were obtained:
[1] = test system: Hep3B Transplantation Models; experiment: Tumor growth inhibition (TGI), antitumor activity test of mice in vivo; settings: 100 mg/kg, BID, Hep3B transplantation model
Description: The evolutionary growth potential of a tumor was assessed by the relationship between the volume of the tumor and time. The long axis (L) and short axis (W) of a subcutaneous tumor were determined by a caliper twice a week, the tumor volume (TV) was calculated by the formula of ((L×W^2)/2). TGI was calculated by the difference value between the median of tumor volumes of mice in the solvent group and the median of tumor volumes of mice in the drug group, and represented by the percentage accounting for the median of tumor volumes in the solvent control group,
Calculated by the following formula: % TGI=((the median of tumor volume (control group)−the median of tumor volume (dosing group))/the median of tumor volume (control group))×100%
The original statistical analysis was completed by the analysis of repeated variance determination. Subsequently, multiple comparisons were performed by a Scheffe psot hoc experimental method. Single solvent (0.5% methylcellulose+1% aqueous solution of Tween) was the negative control.

FGFR4 kinases = molecular target: T1, FGFR4 kinases (Homo sapiens, UniProt P22455); experiment: In vitro enzyme activity test, Z′-LYTE Assay, FGFR4 enzymatic reaction; type: biochemical; settings: Z′-LYTE detection; 150 μM ATP
T1 construct: purchased Life technology
Description: (§1) The inhibitory effects of the compounds on FGFR4 kinases were assessed by detecting the enzymatic activities through Z′-LYTE® Assay, with the IC50 value of the compound as the indicator. This activity test was performed by Life technology.
(§2) The test compounds were diluted in a concentration gradient of 3-times, the final concentrations were 10 concentrations ranging from 10 μM to 0.5 nM, with double hole for each concentration; the content of DMSO in the detection reaction was 1%.
FGFR4 Enzymatic Reaction:
[…] The detection plate was Bar-coded Corning, low volume NBS, black 384-well plate, reaction conducted at room temperature for 60 minutes, and the reaction system was 10μμL.
(§3) To the kinase reaction solution was added 5 μL Development reagent B (1:64) to stop the reaction and incubated at 23° C. for 60 minutes, reading the plate with Envision instrument.
(§4) Data was transformed into the phosphorylation rate and the inhibitory rate by curve fitting with Model 205 in XLFIT (iDBS) to obtain the IC50 data of the compounds. It was set as 0% if the bottom of the curve was not in the range of −20% to 20%; otherwise it was set as 100% if the top of the curve was not in the range of 70% to 130%.

FGFR1 protein kinase = molecular target: T2, FGFR1 protein kinase (Homo sapiens, UniProt P11362); experiment: In vitro enzyme activity test, Z′-LYTE Assay, FGFR1 enzymatic reaction; type: biochemical; settings: Z′-LYTE detection; 25 μM ATP
T2 construct: purchased Life technology
Description: as §1, §2
FGFR1 Enzymatic Reaction:
1 nM FGFR1 protein kinase, 2 μM Tyr4 peptide, 25 μM ATP, 50 mM HEPES (pH 7.5), 10 mM MgCl2, 1 mM EGTA, 0.01% BRIJ-35, 2 mM MnCl2, 1 mM DTT. The detection plate was Black Proxiplate 384-Plus plate (PerkinElmer), reaction conducted at room temperature for 60 minutes, and the reaction system was 10μμL.
as §3, §4

[2] = Pharmacokinetic evaluation in mice (IV and oral gavage); type: in vivo, female Balb/c nude mice; settings: for AUC(0-t) / clearance / half-life / Vd / Cmax / Tmax: mouse, plasma; for clearance: read-out: Cl (plasma clearance); for half-life: read-out: T1/2 (elimination half-life) (converted); for Vd: read-out: Vdss (steady-state apparent volume of distribution); for Cmax: read-out: Cmax (peak concentration); for Tmax: read-out: Tmax (time to peak)
Description: […] The test compound suspended in the corresponding solvent at 1 mg/ml was administered by gavage to female Balb/c nude mice (fasted overnight, at an age of 7-9 weeks), with a dosage of 10 mg/kg. Two groups of animals were both blood sampled about 30 μL from jugular vein or tail vein at 0.0833, 0.25, 0.5, 1.0, 2.0, 4.0, 6.0, 8.0 and 24 h post-administration, which was placed into an anticoagulant tube charged with EDTA-K2, and plasma was separated by centrifugation. Plasma concentrations were determined by LC-MS/MS process using WinNonlin™ Version 6.3 (Pharsight, Mountain View, Calif.) pharmacokinetic software, calculating the related pharmacokinetic parameters with a linear logarithmic trapezoidal method for […] models.

[3] = IV tail vein 2 mg/kg, female Balb/c nude mice
[4] = PO gavage 10 mg/kg, female Balb/c nude mice

T1 sequence (P22455 22-802): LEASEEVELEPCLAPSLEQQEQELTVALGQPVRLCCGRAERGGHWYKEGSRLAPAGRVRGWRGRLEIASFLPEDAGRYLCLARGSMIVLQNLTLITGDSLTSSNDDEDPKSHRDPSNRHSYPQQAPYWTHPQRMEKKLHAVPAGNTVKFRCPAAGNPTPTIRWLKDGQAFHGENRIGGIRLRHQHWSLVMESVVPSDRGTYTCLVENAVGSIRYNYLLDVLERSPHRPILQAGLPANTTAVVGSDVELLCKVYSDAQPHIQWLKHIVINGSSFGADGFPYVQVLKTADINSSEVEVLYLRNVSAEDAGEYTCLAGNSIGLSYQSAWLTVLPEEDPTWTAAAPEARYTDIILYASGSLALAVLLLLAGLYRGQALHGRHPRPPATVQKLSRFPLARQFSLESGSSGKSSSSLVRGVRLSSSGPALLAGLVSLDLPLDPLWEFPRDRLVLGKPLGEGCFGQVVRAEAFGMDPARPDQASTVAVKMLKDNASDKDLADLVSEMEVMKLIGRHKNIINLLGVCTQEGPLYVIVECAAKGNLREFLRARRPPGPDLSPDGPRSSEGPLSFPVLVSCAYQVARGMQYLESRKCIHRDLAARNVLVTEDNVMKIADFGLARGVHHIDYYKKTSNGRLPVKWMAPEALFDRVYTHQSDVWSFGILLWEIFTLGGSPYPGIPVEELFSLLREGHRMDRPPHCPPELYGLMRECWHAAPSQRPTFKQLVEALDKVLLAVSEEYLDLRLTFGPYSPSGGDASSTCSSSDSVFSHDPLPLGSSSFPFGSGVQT
T2 sequence (P11362 22-822): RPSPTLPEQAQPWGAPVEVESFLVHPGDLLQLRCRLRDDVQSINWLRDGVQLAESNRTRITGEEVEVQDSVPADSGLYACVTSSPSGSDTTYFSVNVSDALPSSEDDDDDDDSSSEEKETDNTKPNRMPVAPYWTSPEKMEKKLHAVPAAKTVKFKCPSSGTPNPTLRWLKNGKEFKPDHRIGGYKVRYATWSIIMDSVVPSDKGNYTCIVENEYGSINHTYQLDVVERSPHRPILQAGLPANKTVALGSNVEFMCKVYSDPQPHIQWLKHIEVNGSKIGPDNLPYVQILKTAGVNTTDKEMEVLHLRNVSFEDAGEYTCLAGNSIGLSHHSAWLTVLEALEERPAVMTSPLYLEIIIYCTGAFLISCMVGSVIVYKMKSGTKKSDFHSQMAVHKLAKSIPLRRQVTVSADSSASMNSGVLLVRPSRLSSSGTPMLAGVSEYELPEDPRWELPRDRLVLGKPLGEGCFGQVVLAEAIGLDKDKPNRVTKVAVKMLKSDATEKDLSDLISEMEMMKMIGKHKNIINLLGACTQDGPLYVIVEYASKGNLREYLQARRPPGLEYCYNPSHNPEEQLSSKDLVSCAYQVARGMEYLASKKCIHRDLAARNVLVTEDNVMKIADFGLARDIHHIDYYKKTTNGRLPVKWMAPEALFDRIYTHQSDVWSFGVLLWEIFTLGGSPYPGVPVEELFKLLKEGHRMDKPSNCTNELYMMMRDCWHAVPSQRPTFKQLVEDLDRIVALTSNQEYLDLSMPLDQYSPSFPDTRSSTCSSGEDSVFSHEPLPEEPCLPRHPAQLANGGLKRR

Structure (SMILES) | TGI % (dosing on Day 21 for the last time) [1] [%] | IC50 (FGFR4 kinases) [nM] | IC50 (FGFR1 protein kinase) [nM] | F (bioavailability; oral absorption ratio) ([2]; PO gavage 10 mg/kg vs IV 2 mg/kg, female Balb/c nude mice) [%] | AUC(0-t) [2, 3] [µM·h] | clearance [2, 3] [mL/min/kg] | half-life [2, 3] [min] | Vd [2, 3] [L/kg] | AUC(0-t) [2, 4] [µM·h] | Cmax [2, 4] [nM] | Tmax [2, 4] [min] | stability enhanced (plasma clearance) compared with the control example 4 ([2]; IV, mice, ratio to control example 4) [times]
C=CC(=O)NC1COCC1Nc1ncc(C=C(F)c2c(Cl)c(OC)cc(OC)c2Cl)cn1 (single isomer, unassigned) [Example 21] | 106 | 17 | 1460 | 20.4 | 1.42 | 48.2 | 17.5 | 0.723 | 1.07 | 1120 | 15 | 
C=CC(=O)N[C@H]1CCOC[C@H]1Nc1ncc(/C=C(\F)c2c(Cl)c(OC)cc(OC)c2Cl)cn1 [Example 16] | 89 | 67.5 | 2520 |  | 2.8 | 23.9 | 40.6 | 1.2 | 5.64 | 3290 | 30 | 3
